Results taken from patent publication US20250296971A1, “GASTRIC INHIBITORY PEPTIDE RECEPTOR LIGANDS” (priority 2021, published 2025).
Read-outs that look alike come from different tables or passages of the source. Each block holds one compound with its values, some of them ahead of it. *1 amine or outer side, *2 acyl side, *3 side chain or, on linkers, in order; H or OH if unused. Where a SMILES comes first, the peptide text is derived from it. Bridges are numbered along the chain shown (N, C = ends). [ ]: non-standard residue; d: D form. The star is where a group is joined. X5 = NC(=O)[C@H](CCCCNC(=O)CN1CCN(CC(=O)O)CCN(CC(=O)O)CCN(CC(=O)O)CC1)NC(=O)CCC(=O)NCCCOCCOCCOCCCN*; X13 = O=C(CN1CCN2CCN3CCN(CC1)CC(=O)[O][Lu]([O]C(=O)C2)[O]C(=O)C3)NCCCOCCOCCOCCCN*; NH(1-deoxy-D-glucityl) = OC[C@@H](O)[C@@H](O)[C@H](O)[C@@H](O)CN*; X26 = O=C(O)CN1CCN2CCN(CCN(CC(=O)*)CC1)CC(=O)[O][Zn][O]C(=O)C2; Propanoyl(3-(1-naphthyl)) = O=C(CCc1cccc2ccccc12)*; Trp(5-Cl) = N[C@@H](Cc1c[nH]c2ccc(Cl)cc12)C(=O)O; Pyridine(2,6-diCH2) = c1cc(C[*:1])nc(C[*:2])c1; Trp(5-F) = N[C@@H](Cc1c[nH]c2ccc(F)cc12)C(=O)O; X24 = OC[C@H](CSCc1cccc(C[*:1])n1)N[*:2]; 1Nal = N[C@@H](Cc1cccc2ccccc12)C(=O)O; mXylylene = c1cc(C[*:1])cc(C[*:2])c1; Glutaryl = O=C(CCCC(=O)[*:2])[*:1]; X6 = c1cc(CSCCN[*:2])nc(C[*:1])c1; X7 = c1cc(CSCCN[*:2])cc(C[*:1])c1; Hyp = O=C(O)[C@@H]1C[C@@H](O)CN1; X1 = O=C(CN1CCC(N[*:1])CC1)[*:2]; Suc = O=C(CCC(=O)[*:2])[*:1]; hCys = N[C@@H](CCS)C(=O)O; Api = NC1(C(=O)O)CCNCC1; Thp = NC1(C(=O)O)CCOCC1; Aib = CC(C)(N)C(=O)O

Molecular target: T1, GIPR (CHO-K1-hGIPR cells) (Homo sapiens, UniProt P48546)
T1 construct: host or cells: CHO-K1
T1 sequence (P48546 22-466): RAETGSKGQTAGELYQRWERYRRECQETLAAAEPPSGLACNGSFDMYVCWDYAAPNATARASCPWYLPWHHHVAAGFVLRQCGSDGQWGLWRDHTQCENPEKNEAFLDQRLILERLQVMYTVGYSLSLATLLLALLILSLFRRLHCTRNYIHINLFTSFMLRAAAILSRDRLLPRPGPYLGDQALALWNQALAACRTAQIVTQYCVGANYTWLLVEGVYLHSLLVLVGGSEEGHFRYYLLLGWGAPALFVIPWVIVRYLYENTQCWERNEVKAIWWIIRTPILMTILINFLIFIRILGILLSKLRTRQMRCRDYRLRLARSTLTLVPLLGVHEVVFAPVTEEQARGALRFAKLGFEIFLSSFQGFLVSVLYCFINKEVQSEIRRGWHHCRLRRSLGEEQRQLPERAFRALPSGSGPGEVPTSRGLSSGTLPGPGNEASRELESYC
Assay: FACS binding assay
Procedure, shortened: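 CHO-K1 cells expressing human GIPR, washed in PBS/1% FCS, then stained with 1 μg/mL APC-streptavidin for 30 min on ice.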

[1] = competition with 20 nM GIP-057, 4° C., 1 hour, read-out: pIC50 Category (converted)
[2] = competition with 20 nM GIP-057, 4° C. for 1 hour, read-out: pIC50 Category (converted)

IC50 [2]: 10 to 79.4 nM
SMILES: CC[C@H](C)[C@@H]1NC(=O)[C@H](CC(C)C)NC(=O)C2(CCOCC2)NC(=O)[C@@H](NC(=O)[C@H](CC(C)C)NC(=O)[C@H](CCC(=O)O)NC(=O)[C@@H]2CCCN2C(=O)[C@H](Cc2c[nH]c3ccccc23)NC(=O)[C@H](Cc2c[nH]c3ccccc23)NC(=O)CCC(=O)O)CSCc2cccc(c2)CSC[C@@H](C(N)=O)NC1=O [GIP-261, HO-Succinyl-Trp-Trp-Pro-Glu-Leu-[Cys(3MeBn)-Thp-Leu-Ile-Cys]-NH2] (Suc-WWPELC[Thp]LIC-NH2; linker 6-10 via mXylylene)

IC50 [2]: 10 to 79.4 nM
SMILES: CC[C@H](C)[C@@H]1NC(=O)[C@H](CC(C)C)NC(=O)C2(CCOCC2)NC(=O)[C@@H](NC(=O)[C@@H](CC(C)C)NC(=O)[C@@H]2CCCN2C(=O)[C@@H]2C[C@@H](O)CN2C(=O)[C@H](Cc2c[nH]c3ccc(Cl)cc23)NC(=O)[C@H](Cc2c[nH]c3ccccc23)NC(=O)[C@H](CC(=O)O)NC(C)=O)CSCc2cccc(n2)CSC[C@@H](C(N)=O)NC1=O [GIP-398, Ac-Asp-Trp-5Clw-Hyp-Pro-leu-[Cys(2Lut)-Thp-Leu-Ile-Cys]-NH2] (Ac-DW[Trp(5-Cl)][Hyp]P[dL]C[Thp]LIC-NH2; linker 7-11 via Pyridine(2,6-diCH2))

IC50 [2]: 100 to 794 nM
SMILES: CC[C@H](C)[C@@H]1NC(=O)[C@H](CC(C)C)NC(=O)C2(CCOCC2)NC(=O)[C@@H](NC(=O)[C@@H](CC(C)C)NC(=O)[C@H](CCC(=O)O)NC(=O)[C@@H]2C[C@@H](O)CN2C(=O)[C@H](Cc2c[nH]c3ccc(Cl)cc23)NC(=O)[C@H](Cc2c[nH]c3ccccc23)NC(=O)[C@H](CC(=O)O)NC(C)=O)CSSC[C@@H](C(N)=O)NC1=O [GIP-364, Ac-Asp-Trp-5Clw-Hyp-Glu-leu-[Cys-Thp-Leu-Ile-Cys]-NH2] (Ac-DW[Trp(5-Cl)][Hyp]E[dL]C[Thp]LIC-NH2; disulfide 7-11)

IC50 [2]: 100 to 794 nM
SMILES: CC[C@H](C)[C@@H]1NC(=O)[C@H](CC(C)C)NC(=O)[C@H](C)NC(=O)[C@@H](NC(=O)[C@H](CC(C)C)NC(=O)[C@H](CCC(=O)O)NC(=O)[C@@H]2CCCN2C(=O)[C@H](Cc2c[nH]c3ccccc23)NC(=O)[C@H](Cc2c[nH]c3ccccc23)NC(=O)[C@@H](CC(=O)O)NC(=O)[C@H](Cc2ccc(O)cc2)NC(=O)[C@@H](N)CCSC)CSCc2cccc(c2)CSC[C@@H](C(N)=O)NC1=O [GIP-307, H-Met-Tyr-asp-Trp-Trp-Pro-Glu-Leu-[Cys(3MeBn)-Ala-Leu-Ile-Cys]-NH2] (H-MY[dD]WWPELCALIC-NH2; linker 9-13 via mXylylene)

IC50 [2]: < 10 nM
SMILES: CC[C@H](C)[C@@H]1NC(=O)[C@H](CC(C)C)NC(=O)C2(CCOCC2)NC(=O)[C@@H](NC(=O)[C@@H](CC(C)C)NC(=O)[C@H](CCC(=O)O)NC(=O)[C@@H]2C[C@@H](O)CN2C(=O)[C@H](Cc2c[nH]c3ccc(Cl)cc23)NC(=O)[C@H](Cc2cccc3ccccc23)NC(=O)[C@H](CC(=O)O)NC(C)=O)CSCc2cccc(n2)CSC[C@@H](C(N)=O)NC1=O [GIP-380, Ac-Asp-1Ni-5Clw-Hyp-Glu-leu-[Cys(2Lut)-Thp-Leu-Ile-Cys]-NH2] (Ac-D[1Nal][Trp(5-Cl)][Hyp]E[dL]C[Thp]LIC-NH2; linker 7-11 via Pyridine(2,6-diCH2))

IC50 [2]: 100 to 794 nM
SMILES: CC[C@H](C)[C@@H]1NC(=O)[C@H](CC(C)C)NC(=O)C(C)(C)NC(=O)[C@@H](NC(=O)[C@@H](CC(C)C)NC(=O)[C@H](CCC(=O)O)NC(=O)[C@@H]2CCCN2C(=O)[C@H](Cc2c[nH]c3ccccc23)NC(=O)[C@H](Cc2c[nH]c3ccccc23)NC(=O)[C@H](CC(=O)O)NC(=O)CCc2cccc3ccccc23)CSCc2cccc(c2)CSC[C@@H](C(=O)NCCCOCCOCCOCCCNC(=O)CCC(=O)N[C@@H](CCCCNC(=O)CN2CCN(CC(=O)O)CCN(CC(=O)O)CCN(CC(=O)O)CC2)C(N)=O)NC1=O [GIP-280, Nph1p-Asp-Trp-Trp-Pro-Glu-leu-[Cys(3MeBn)-Aib-Leu-Ile-Cys]-Ttds-Lys(DOTA)-NH2] ({Propanoyl(3-(1-naphthyl))}-DWWPE[dL]C[Aib]LIC-X5; linker 7-11 via mXylylene)

IC50 [2]: < 10 nM
SMILES: CC[C@H](C)[C@@H]1NC(=O)[C@H](CC(C)C)NC(=O)C2(CCOCC2)NC(=O)[C@@H](NC(=O)[C@@H](CC(C)C)NC(=O)[C@H](CCC(=O)O)NC(=O)[C@@H]2C[C@@H](O)CN2C(=O)[C@H](Cc2c[nH]c3ccc(Cl)cc23)NC(=O)[C@H](Cc2c[nH]c3ccc(F)cc23)NC(=O)[C@H](CC(=O)O)NC(C)=O)CSCc2cccc(n2)CSC[C@@H](C(N)=O)NC1=O [GIP-382, Ac-Asp-5Fw-5Clw-Hyp-Glu-leu-[Cys(2Lut)-Thp-Leu-Ile-Cys]-NH2] (Ac-D[Trp(5-F)][Trp(5-Cl)][Hyp]E[dL]C[Thp]LIC-NH2; linker 7-11 via Pyridine(2,6-diCH2))

More lines, now with the values behind:

SMILES: CC[C@H](C)[C@@H]1NC(=O)[C@H](CC(C)C)NC(=O)C2(CCN(C(=O)CN3CCN(CC(=O)O)CCN4CCN(CC3)CC(=O)[O][Zn][O]C(=O)C4)CC2)NC(=O)[C@@H](NC(=O)[C@@H](CC(C)C)NC(=O)[C@H](CCC(=O)O)NC(=O)[C@@H]2C[C@@H](O)CN2C(=O)[C@H](Cc2c[nH]c3ccc(Cl)cc23)NC(=O)[C@H](Cc2c[nH]c3ccccc23)NC(=O)[C@H](CC(=O)O)NC(=O)CCCC(=O)NC[C@H](O)[C@@H](O)[C@H](O)[C@H](O)CO)CSCc2cccc(n2)CSCCNC1=O [GIP-147, AGLU-Glutar-Asp-Trp-5Clw-Hyp-Glu-leu-[Cys(2Lut)-Apc(ZnDOTA)-Leu-Ile-AET]] ({NH(1-deoxy-D-glucityl)-Glutaryl}-DW[Trp(5-Cl)][Hyp]E[dL]C[Api](X26)LI; linker 7-C via X6)
IC50 [1]: < 10 nM

SMILES: CC[C@H](C)[C@@H]1NC(=O)[C@H](CC(C)C)NC(=O)C(C)(C)NC(=O)[C@@H](NC(=O)[C@@H](CC(C)C)NC(=O)[C@H](CCC(=O)O)NC(=O)[C@@H]2CCCN2C(=O)[C@H](Cc2c[nH]c3ccc(Cl)cc23)NC(=O)[C@H](Cc2c[nH]c3ccccc23)NC(=O)[C@H](CC(=O)O)NC(=O)CCC(=O)NCCCOCCOCCOCCCNC(=O)CN2CCN(CC(=O)O)CCN(CC(=O)O)CCN(CC(=O)O)CC2)CNCc2cccc(c2)C[S+]([O-])CCNC1=O (stereo partly drawn) [GIP-098, DOTA-Ttds-Asp-Trp-5Clw-Pro-Glu-leu-[Dap(3MeBn)-Aib-Leu-Ile-AETO]]
IC50 [1]: < 10 nM

SMILES: CC[C@H](C)[C@@H]1NC(=O)[C@H](CC(C)C)NC(=O)C2(CCOCC2)NC(=O)[C@@H](NC(=O)[C@@H](CC(C)C)NC(=O)[C@H](CCC(=O)O)NC(=O)[C@@H]2C[C@@H](O)CN2C(=O)[C@H](Cc2c[nH]c3ccc(Cl)cc23)NC(=O)[C@H](Cc2c[nH]c3ccccc23)NC(=O)[C@H](CC(=O)O)NC(C)=O)CSCc2cccc(n2)CSCC[C@@H](C(N)=O)NC1=O [GIP-201, Ac-Asp-Trp-5Clw-Hyp-Glu-leu-[Cys(2Lut)-Thp-Leu-Ile-Hcy]-NH2] (Ac-DW[Trp(5-Cl)][Hyp]E[dL]C[Thp]LI[hCys]-NH2; linker 7-11 via Pyridine(2,6-diCH2))
IC50 [1]: < 10 nM

SMILES: CC[C@H](C)[C@@H]1NC(=O)[C@H](CC(C)C)NC(=O)C2(CCOCC2)NC(=O)[C@@H](NC(=O)[C@@H](CC(C)C)NC(=O)[C@H](CCC(=O)O)NC(=O)[C@@H]2C[C@@H](O)CN2C(=O)[C@H](Cc2c[nH]c3ccc(Cl)cc23)NC(=O)[C@H](Cc2c[nH]c3ccccc23)NC(=O)[C@H](CC(=O)O)NC(C)=O)CSCc2cccc(n2)CSC[C@@H](CO)NC1=O [GIP-182, Ac-Asp-Trp-5Clw-Hyp-Glu-leu-[Cys(2Lut)-Thp-Leu-Ile-Cysol]-OH] (Ac-DW[Trp(5-Cl)][Hyp]E[dL]C[Thp]LI; linker 7-C via X24)
IC50 [1]: < 10 nM

SMILES: CC[C@H](C)[C@@H]1NC(=O)[C@H](CC(C)C)NC(=O)C2(CCOCC2)NC(=O)[C@@H](NC(=O)[C@@H](CC(C)C)NC(=O)[C@H](CCC(=O)O)NC(=O)[C@@H]2CCCN2C(=O)[C@H](Cc2c[nH]c3ccc(Cl)cc23)NC(=O)[C@H](Cc2c[nH]c3ccccc23)NC(=O)[C@H](CC(=O)O)NC(=O)CCC(=O)NCCCOCCOCCOCCCNC(=O)CN2CCN3CCN4CCN(CC2)CC(=O)[O][Lu]([O]C(=O)C3)[O]C(=O)C4)CSCc2cccc(c2)CSCCNC1=O [GIP-158, LuDOTA-Ttds-Asp-Trp-5Clw-Pro-Glu-leu-[Cys(3MeBn)-Thp-Leu-Ile-AET]] ({X13-Suc}-DW[Trp(5-Cl)]PE[dL]C[Thp]LI; linker 7-C via X7)
IC50 (pIC50 Category, competition with 20 nM GIP-057, 4° C., 1 hour): < 10 nM

SMILES: CC[C@H](C)[C@@H]1NC(=O)[C@H](CC(C)C)NC(=O)C2(CCOCC2)NC(=O)[C@@H](NC(=O)[C@@H](CC(C)C)NC(=O)[C@H](CCC(=O)O)NC(=O)[C@@H]2C[C@@H](O)CN2C(=O)[C@H](Cc2c[nH]c3ccc(Cl)cc23)NC(=O)[C@H](Cc2c[nH]c3ccccc23)NC(=O)[C@H](CC(=O)O)NC(=O)CCCC(=O)NC[C@H](O)[C@@H](O)[C@H](O)[C@H](O)CO)CSCc2cccc(n2)CSC[C@@H](C(=O)NC2CCN(CC(=O)N[C@H](CCC(=O)NC[C@H](O)[C@@H](O)[C@H](O)[C@H](O)CO)C(N)=O)CC2)NC1=O [GIP-174, AGLU-Glutar-Asp-Trp-5Clw-Hyp-Glu-leu-[Cys(2Lut)-Thp-Leu-Ile-Cys]-APAc-glu(AGLU)-NH2] ({NH(1-deoxy-D-glucityl)-Glutaryl}-DW[Trp(5-Cl)][Hyp]E[dL]C[Thp]LIC[X1][dE](NH(1-deoxy-D-glucityl))-NH2; linker 7-11 via Pyridine(2,6-diCH2))
IC50 [1]: < 10 nM
